Experiment [1] addresses T1, Prostaglandin G/H synthase 1 (Ovis aries, UniProt P05979).
T1 sequence (P05979 whole entry): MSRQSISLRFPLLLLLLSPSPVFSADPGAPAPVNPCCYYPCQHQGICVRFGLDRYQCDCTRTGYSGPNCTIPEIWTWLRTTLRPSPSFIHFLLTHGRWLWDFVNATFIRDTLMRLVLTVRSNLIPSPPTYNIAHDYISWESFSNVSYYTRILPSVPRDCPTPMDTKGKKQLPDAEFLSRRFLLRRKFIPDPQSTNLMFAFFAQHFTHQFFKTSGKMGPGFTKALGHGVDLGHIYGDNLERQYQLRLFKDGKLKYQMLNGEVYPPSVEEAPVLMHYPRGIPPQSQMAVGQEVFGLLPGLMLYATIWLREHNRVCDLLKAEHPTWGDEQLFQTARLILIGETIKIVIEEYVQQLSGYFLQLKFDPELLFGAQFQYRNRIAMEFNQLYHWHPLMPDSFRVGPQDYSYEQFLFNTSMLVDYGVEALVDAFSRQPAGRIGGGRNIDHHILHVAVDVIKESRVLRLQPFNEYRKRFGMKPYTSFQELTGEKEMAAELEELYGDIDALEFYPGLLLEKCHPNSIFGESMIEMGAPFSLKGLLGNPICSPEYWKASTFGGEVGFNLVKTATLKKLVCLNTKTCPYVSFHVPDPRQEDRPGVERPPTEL
Description: Inhibition of ovine COX1 assessed as production of PGF2-alpha preincubated with compound followed by the addition of 5 uM arachidonic acid as substrate by enzyme immunoassay.

In experiment [2] the target is T2, Prostaglandin G/H synthase 2 (Homo sapiens, UniProt P35354).
T2 sequence (P35354 whole entry): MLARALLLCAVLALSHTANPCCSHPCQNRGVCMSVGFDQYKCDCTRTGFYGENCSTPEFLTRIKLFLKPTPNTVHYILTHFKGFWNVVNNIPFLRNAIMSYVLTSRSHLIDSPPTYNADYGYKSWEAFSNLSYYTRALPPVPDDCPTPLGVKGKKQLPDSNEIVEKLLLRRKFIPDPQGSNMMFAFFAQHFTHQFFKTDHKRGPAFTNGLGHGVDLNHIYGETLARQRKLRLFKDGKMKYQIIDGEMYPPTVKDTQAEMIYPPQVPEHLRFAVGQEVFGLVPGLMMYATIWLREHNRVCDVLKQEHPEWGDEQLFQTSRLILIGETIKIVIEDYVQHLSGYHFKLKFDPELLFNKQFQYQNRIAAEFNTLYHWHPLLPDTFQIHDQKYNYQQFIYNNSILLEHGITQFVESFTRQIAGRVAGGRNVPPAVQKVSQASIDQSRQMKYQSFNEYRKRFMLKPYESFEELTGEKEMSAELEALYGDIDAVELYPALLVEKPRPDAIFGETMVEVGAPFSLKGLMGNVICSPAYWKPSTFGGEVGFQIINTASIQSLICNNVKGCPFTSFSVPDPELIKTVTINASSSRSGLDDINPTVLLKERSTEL
Kind of experiment: Inhibition of recombinant human COX2 assessed as production of PGF2-alpha preincubated with compound followed by the addition of 5 uM arachidonic acid as substrate by enzyme immunoassay.

Experiment [3] concerns the target T3, Fatty-acid amide hydrolase 1 (Rattus norvegicus, UniProt P97612).
T3 sequence (P97612 whole entry): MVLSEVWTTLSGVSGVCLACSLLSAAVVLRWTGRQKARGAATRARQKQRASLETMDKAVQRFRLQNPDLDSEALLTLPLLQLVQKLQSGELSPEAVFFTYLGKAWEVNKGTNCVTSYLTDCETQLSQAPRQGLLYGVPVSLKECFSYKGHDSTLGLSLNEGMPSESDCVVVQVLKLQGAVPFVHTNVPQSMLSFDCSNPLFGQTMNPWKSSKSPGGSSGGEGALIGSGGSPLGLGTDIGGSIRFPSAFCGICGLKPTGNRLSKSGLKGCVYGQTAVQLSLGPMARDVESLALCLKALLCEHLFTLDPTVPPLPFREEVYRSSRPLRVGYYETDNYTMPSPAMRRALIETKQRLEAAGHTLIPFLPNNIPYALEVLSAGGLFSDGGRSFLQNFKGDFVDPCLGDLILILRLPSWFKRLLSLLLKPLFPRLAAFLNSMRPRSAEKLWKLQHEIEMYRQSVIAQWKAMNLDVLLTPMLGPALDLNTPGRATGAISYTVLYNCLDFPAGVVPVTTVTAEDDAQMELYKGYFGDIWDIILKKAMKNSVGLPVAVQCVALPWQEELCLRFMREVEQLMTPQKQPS
Kind of experiment: Inhibition of FAAH in Sprague-Dawley rat brain homogenates preincubated for 10 mins followed by addition of substrate measured after 30 mins by liquid scintillation counting. It is filed as tissue-based.

Where only a bound is given, the exact number is not on record here.

In the case of `CCCCCCNC(=O)Oc1cccc(-c2ccc(C(C)C(=O)OC)cc2F)c1` (racemic), the values for the IC50 in experiment [1], in experiment [2] and in experiment [3] were above 100 µM, above 100 µM and 0.052 µM, respectively.
For `CCNC(=O)Oc1cccc(-c2ccc(C(C)C(=O)O)cc2F)c1` (racemic), the IC50 (in general, the concentration that gives 50% inhibition) is 2.1 µM in experiment [1], above 100 µM in experiment [2] and above 100 µM in experiment [3].
`CC(C(=O)O)c1ccc(-c2cccc(OC(=O)NC3CCCCC3)c2)c(F)c1` (racemic): the IC50 in experiment [2] is above 100 µM.
`CCCCCCNC(=O)Oc1cccc(-c2ccc(C(C)C(=O)O)cc2O)c1` (racemic): the figures for the IC50 in experiment [1], in experiment [2] and in experiment [3] were 0.65 µM, 13 µM and 0.035 µM, respectively.
As to `CCCCCCNC(=O)Oc1cccc(-c2ccc(C(=O)O)cc2F)c1`, the IC50 in experiment [1] was above 100 µM; in experiment [2], above 100 µM; in experiment [3] it was 0.085 µM.
In the case of `CCCCCCNC(=O)Oc1cccc(-c2ccc(C(C)CO)cc2F)c1` (racemic), the IC50 was above 100 µM in experiment [2] and 0.003 µM in experiment [3].
Regarding `CCCCCCNC(=O)Oc1ccccc1-c1ccc(C(C)C(=O)O)cc1F` (racemic), the IC50 in experiment [2] was above 100 µM.
In the case of `CCCCCCNC(=O)Oc1ccc(-c2ccc(C(C)C(=O)O)cc2F)cc1` (racemic), the results for the IC50 in experiment [1], in experiment [2] and in experiment [3] were above 100 µM, above 100 µM and 0.068 µM, respectively.
For `CC(C(=O)O)c1ccc(-c2cccc(OC(=O)NCCc3ccccc3)c2)c(F)c1` (racemic), the IC50 in experiment [2] was above 100 µM.
On to `CC(C(=O)O)c1ccc(-c2cccc(OC(=O)Nc3ccccc3)c2)c(F)c1` (racemic), for which the IC50 was found to be 0.27 µM in experiment [1], 2.7 µM in experiment [2] and 41.2 µM in experiment [3].
In the same order, the values of `CCCCCCNC(=O)Oc1cccc(-c2ccc(C)cc2F)c1` are above 100 µM, above 100 µM and 0.026 µM.
The corresponding values for `CCCCCCNC(=O)Oc1cccc(-c2ccc(C(C)C(=O)O)cc2Cl)c1` (racemic) are 0.009 µM, 0.73 µM and 0.023 µM.
For `CCCCCCNC(=O)Oc1cccc(-c2ccc(C(C)C(=O)O)cc2)c1` (racemic), the values for the IC50 in experiment [1], in experiment [2] and in experiment [3] were 0.054 µM, 0.69 µM and 0.003 µM, respectively.
For the compound `CCCCCCNC(=O)Oc1cccc(-c2ccc(C(C)C(=O)O)cc2C)c1` (racemic), the IC50 came out at 0.011 µM in experiment [1], 1.4 µM in experiment [2] and 0.01 µM in experiment [3].
For `CC(C)CNC(=O)Oc1cccc(-c2ccc(C(C)C(=O)O)cc2F)c1` (racemic), the results for the IC50 in experiment [2] and in experiment [3] were above 100 µM and 4.1 µM, respectively.
`CC(C(=O)O)c1ccc(-c2cccc(OC(=O)NCc3ccccc3)c2)c(F)c1` (racemic): the IC50 in experiment [2] is above 100 µM.
Still for that read-out and setting: under `CCCCNC(=O)Oc1cccc(-c2ccc(C(C)C(=O)O)cc2F)c1` (racemic) stands above 100 µM; under `CC(C(=O)O)c1ccc(-c2cccc(OC(=O)NC3CCCC3)c2)c(F)c1` (racemic), above 100 µM.
Turning to `CCCCCCNC(=O)Oc1cccc(-c2ccc(C(C)C(=O)O)cc2C(F)(F)F)c1` (racemic), the IC50 in experiment [1] came to 0.01 µM; in experiment [2], 0.2 µM; in experiment [3], 0.005 µM.
On to `CC(C(=O)O)c1ccc(-c2cccc(OC(=O)NCC3CCCCC3)c2)c(F)c1` (racemic), for which the IC50 in experiment [2] was above 100 µM.
With `CC(C(=O)O)c1ccc(-c2cccc(OC(=O)NC3CC3)c2)c(F)c1` (racemic), the IC50 was 5.4 µM in experiment [1], 74.3 µM in experiment [2] and above 100 µM in experiment [3].
As for `NC(=O)c1cccc(-c2cccc(OC(=O)NC3CCCCC3)c2)c1` [URB-597], the IC50 in experiment [1] and in experiment [2] was above 100 µM in each case.
Turning to `CCCCCCNC(=O)Oc1cccc(-c2ccc([C@@H](C)C(=O)O)cc2F)c1`, the IC50 in experiment [1] is 4 µM.
As to `CC(C(=O)O)c1ccc(-c2cccc(OC(=O)NC3CCC3)c2)c(F)c1` (racemic), the IC50 in experiment [1] was 0.72 µM; in experiment [2], above 100 µM; in experiment [3], 48.7 µM.
As to `CCCCCCCCNC(=O)Oc1cccc(-c2ccc(C(C)C(=O)O)cc2F)c1` (racemic), the IC50 in experiment [3] amounted to 0.003 µM.
Turning to `CCCCCCNC(=O)Oc1cccc(-c2ccc(C(C)C(=O)O)cc2[N+](=O)[O-])c1` (racemic), the IC50 stood at 0.13 µM in experiment [1], 0.93 µM in experiment [2] and 0.009 µM in experiment [3].
Compound `CC(C(=O)O)c1ccc(-c2ccccc2)c(F)c1` (stereo unspecified) [FLURBIPROFEN] had an IC50 in experiment [3] above 100 µM.
`CCCNC(=O)Oc1cccc(-c2ccc(C(C)C(=O)O)cc2F)c1` (racemic): the IC50 is 1.65 µM in experiment [1], above 100 µM in experiment [2] and above 100 µM in experiment [3].
As for `CCCCCCNC(=O)Nc1cccc(-c2ccc(C(C)C(=O)O)cc2F)c1` (racemic), the IC50 in experiment [1] turned out to be 0.014 µM; in experiment [2] it was 0.56 µM; in experiment [3], 88.4 µM.
In the case of `CC(C(=O)O)c1ccc(-c2cccc(OC(=O)NCCCCc3ccccc3)c2)c(F)c1` (racemic), in experiment [2], the IC50 was above 100 µM.
On to `CC(C)NC(=O)Oc1cccc(-c2ccc(C(C)C(=O)O)cc2F)c1` (racemic), for which the IC50 was 3.9 µM in experiment [1], above 100 µM in experiment [2] and above 100 µM in experiment [3].
`CCCCCCNC(=O)Oc1cccc(-c2ccc(C(C)C(=O)O)cc2N)c1` (racemic): the IC50 came out at 0.22 µM in experiment [1], 12.1 µM in experiment [2] and 0.049 µM in experiment [3].

The values are drawn from ChEMBL document CHEMBL3774360, “Potent multitarget FAAH-COX inhibitors: Design and structure-activity relationship studies” (Eur J Med Chem, 2016).
